Columns and labels:
NK1 receptor = biological target: T1, NK1 receptor (Cavia porcellus, UniProt P30547); experiment: Test for NK1 receptor antagonist: substance P concentration-response in isolated guinea pig ileum, Schild analysis; details: substance P-induced contraction, 10 min pretreatment, method of Schild
T1 construct: from tissue; host or cells: isolated guinea pig ileum
Procedure: (1) Test for NK1 Receptor Antagonist
The method used was according to the method proposed by S. Dion et al.(Dion et al., Life Sciences 41(1987): 2269), to which minor modifications were made.
Guinea pigs were stunned by a blow on the head and were exsanguinated from the carotid artery and ilea were isolated. The ileum was mounted in an organ bath containing Tyrode's solution which was maintained at 32° C. and gased with 95% O2 and 5% CO2. The ileum was subjected to a resting tension of 1-gram and allowed to equilibrate for 20 minutes before the experiment was started. As a control, a concentration-response curve for substance P in the absence of any of test compounds was used. The NK1 receptor antagonist activity of each test compound was determined by a concentration-response curve obtained by pretreating at least three concentrations of the test compound for 10 minutes and subsequently applying substance P in a cumulative manner. The Kb values were determined according to the method of Schild and the results are shown in Table 1 (Schild Brit. J. Pharmacol. 14(1959): 48).
The composition of the Tyrode's solution was as follows: NaCl=136.9, KCl=2.7, CaCl2·2H2O=2.5, MgCl2·6H2O=1.0, NaH2PO4·2H2O=0.4, NaHCO3=11.9, glucose=11.1 (mmol/L)

Guinea pigs = experiment: Cystometry test on guinea pigs (spinal cord cut), effective bladder capacity; format: in vivo; details: guinea pig
From the text: (2) Cystometry Test on Guinea Pigs
The method used was according to the method proposed by J S. Peterson et al. (Peterson J S. et al., J. Pharmacol. Methods 21(1989): 231), to which minor modifications were made.
Guinea pigs were anesthetized with halothane and the tenth thoracic spinal cord was cut in each animal. Subsequently, both ureters were ligated and were cut on the kidney-side. Polyethylene catheters were inserted into the bladder to provide an injection pathway for physiological saline and a pathway for the measurement of intravesical pressure. Each animal was restricted in a Ballman cage and was left for more than 2 hours. Subsequently, room-temperature saline was injected through the bladder catheter into the bladder at a rate of 6 mL/hr to conduct a cystometry test. Once the effective bladder capacity was stabilized, a test compound was intravenously administered into the jugular vein. The effective bladder capacity is defined as the volume of saline injected from one urination to the next. The effect of each test compound was determined as the increase in the average bladder volume, which was determined based on the average bladder volume measured 30 minutes prior to the administration of the test compound and the average bladder volume measured every 30 minutes after the administration of the test compound.

T1 sequence (P30547 whole entry): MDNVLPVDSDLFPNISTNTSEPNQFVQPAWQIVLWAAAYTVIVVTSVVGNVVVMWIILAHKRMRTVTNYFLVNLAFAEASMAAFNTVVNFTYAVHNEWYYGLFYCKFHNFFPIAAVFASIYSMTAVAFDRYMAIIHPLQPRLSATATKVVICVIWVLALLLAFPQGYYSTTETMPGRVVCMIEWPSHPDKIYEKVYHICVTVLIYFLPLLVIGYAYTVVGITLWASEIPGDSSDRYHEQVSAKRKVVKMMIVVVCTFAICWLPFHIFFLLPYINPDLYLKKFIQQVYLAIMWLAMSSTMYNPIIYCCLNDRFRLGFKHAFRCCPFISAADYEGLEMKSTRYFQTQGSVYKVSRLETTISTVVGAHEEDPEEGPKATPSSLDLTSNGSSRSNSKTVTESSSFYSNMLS

| Compound | Kb (NK1 receptor) | Increase in bladder capacity (%) (Guinea pigs; dose 0.3 mg/kg i.v.) | Increase in bladder capacity (%) (Guinea pigs; dose 1 mg/kg i.v.) | Increase in bladder capacity (%) (Guinea pigs; dose 3 mg/kg i.v.) |
| --- | --- | --- | --- | --- |
| CC(=O)N1CCN(c2nc3c(c(-c4ccccc4C)n2)C(=O)N(Cc2cc(C(F)(F)F)cc(C(F)(F)F)c2)CCCN3)CC1 [Compound of Example 4, 2-(4-acetylpiperazine-1-yl)-6-[3,5-bis(trifluoromethyl)benzyl]-5,6,7,8,9,10-hexahydro-4-(2-methylphenyl)-5-oxopyrimido[4,5-b][1,5]diazocine] | 148 pM | 43.0% | – | – |
| CC(=O)N1CCN(c2nc(-c3ccccc3C)c3c(n2)N(C)CCCN(Cc2cc(C(F)(F)F)cc(C(F)(F)F)c2)C3=O)CC1 [Compound of Example 20] | 324 pM | – | – | – |
| Cc1ccccc1-c1nc(N2CCOCC2)nc2c1C(=O)N(Cc1cc(C(F)(F)F)cc(C(F)(F)F)c1)CCCN2C [Compound of Example 21, 6-[3,5-bis(trifluoromethyl)benzyl]-5,6,7,8,9,10-hexahydro-10-methyl-4-(2-methylphenyl)-2-(morpholine-4-yl)-5-oxopyrimido(4,5-b][1,5]diazocine] | 420 pM | – | – | – |

Second part, led by results:

| Kb (NK1 receptor) | Compound | Increase in bladder capacity (%) (Guinea pigs; dose 0.3 mg/kg i.v.) | Increase in bladder capacity (%) (Guinea pigs; dose 1 mg/kg i.v.) | Increase in bladder capacity (%) (Guinea pigs; dose 3 mg/kg i.v.) |
| --- | --- | --- | --- | --- |
| 79.4 pM | CC(=O)N1CCN(c2nc(-c3ccccc3C)c3c(n2)N(C(C)=O)CCCN(Cc2cc(C(F)(F)F)cc(C(F)(F)F)c2)C3=O)CC1 [Compound of Example 22, 10-acetyl-2-(4-acetylpiperazine-1-yl)-6-[3,5-bis(trifluoromethyl)benzyl]-5,6,7,8,9,10-hexahydro-4-(2-methylphenyl)-5-oxopyrimido[4,5-b][1,5]diazocine] | – | – | – |
| 169 pM | COc1ccccc1-c1nc(N2CCS(=O)(=O)CC2)nc2c1C(=O)N(Cc1cc(C(F)(F)F)cc(C(F)(F)F)c1)CCCN2 [Compound of Example 28, 6-[3,5-bis(trifluoromethyl)benzyl]-2-(1,1-dioxothiomorpholine-4-yl)-5,6,7,8,9,10-hexahydro-4-(2-methoxyphenyl)-5-oxopyrimido[4,5-b][1,5]diazocine] | – | – | – |
| 269 pM | Cc1ccc(-c2c3n(c(=O)c4ncccc24)CC[C@@H](C)CN(Cc2cc(C(F)(F)F)cc(C(F)(F)F)c2)C3=O)cc1 [TAK-637] | 12.0% | 23.8% | 20.5% |
